Data taken from ChEMBL document CHEMBL2086249, “Use of small-molecule crystal structures to address solubility in a novel series of G protein coupled receptor 119 agonists: optimization of a lead and in vivo evaluation” (J Med Chem, 2012).

Assays:
[1] = Intrinsic clearance in human liver microsomes; assay type: ADME, Microsome; conditions: read-out: CLH
physchem = conditions: pH 7.4

| microsomal CLint [1] [µL/min/mg] | logD (physchem; octanol/phosphate buffer) | logD (physchem; octanol/water) | SMILES |
| --- | --- | --- | --- |
| 259 | 4.2 |  | CC(C)(C)OC(=O)N1CCN(c2ncc(-c3ccc(OCC#N)cc3)cn2)CC1 |
| 47 | 3.2 |  | CC(C)(C)OC(=O)N1CCN(c2ncc(OCc3ccc(S(C)(=O)=O)cc3)cn2)CC1 |
|  | 2.8 |  | CC(C)(C)OC(=O)N1CCN(c2ccc(OCc3ccc(S(C)(=O)=O)cc3)nn2)CC1 |
|  |  | 3.4 | CC(C)(C)OC(=O)N1CCN(c2cnc(OCc3ccc(S(C)(=O)=O)cc3)cn2)CC1 |
|  | 3.2 |  | CC(C)(C)OC(=O)N1CCN(c2ccc(OCc3ccc(S(C)(=O)=O)cc3)cn2)CC1 |
|  |  | 3.9 | CC(C)(C)OC(=O)N1CCN(c2ccc(OCc3ccc(S(C)(=O)=O)cc3)cc2)CC1 |
|  | 2.9 |  | CC(C)(C)OC(=O)N1CCN(c2ncc(OCc3ccc(S(C)(=O)=O)cc3)nn2)CC1 |
|  |  | 2.8 | CC(C)(C)OC(=O)N1CCC(c2ncc(OCc3ccc(S(C)(=O)=O)cc3)cn2)CC1 |
|  | 3.5 |  | C[C@H]1CN(C(=O)OC(C)(C)C)CCN1c1ncc(OCc2ccc(S(C)(=O)=O)cc2)cn1 |
|  | 3.5 |  | C[C@@H]1CN(C(=O)OC(C)(C)C)CCN1c1ncc(OCc2ccc(S(C)(=O)=O)cc2)cn1 |
|  | > 3.7 |  | C[C@@H]1CN(c2ncc(OCc3ccc(S(C)(=O)=O)cc3)cn2)CCN1C(=O)OC(C)(C)C |
|  | > 3.6 |  | C[C@H]1CN(c2ncc(OCc3ccc(S(C)(=O)=O)cc3)cn2)CCN1C(=O)OC(C)(C)C |
|  | > 3.6 |  | C[C@@H]1CN(C(=O)OC(C)(C)C)C[C@H](C)N1c1ncc(OCc2ccc(S(C)(=O)=O)cc2)cn1 |
|  | > 3.7 |  | C[C@@H]1CN(c2ncc(OCc3ccc(S(C)(=O)=O)cc3)cn2)[C@@H](C)CN1C(=O)OC(C)(C)C |
|  | 2.8 |  | CC(C)(C)OC(=O)N1C[C@@H]2C[C@H]1CN2c1ncc(OCc2ccc(S(C)(=O)=O)cc2)cn1 |
|  | 3.4 |  | CC(C)(C)OC(=O)N1C[C@@H]2CC[C@H]1CN2c1ncc(OCc2ccc(S(C)(=O)=O)cc2)cn1 |
|  | 3.5 |  | C[C@@H]1CN(C(=O)OC(C)(C)C)CCN1c1ncc(OCC2CCN(S(C)(=O)=O)CC2)cn1 |
|  | > 4.3 |  | C[C@@H]1CN(C(=O)OC(C)(C)C)CCN1c1ncc(OCc2ccc(S(=O)(=O)N(C)C)cc2)cn1 |
|  | > 3.6 |  | C[C@@H]1CN(C(=O)OC(C)(C)C)CCN1c1ncc(OCc2ccc(C#N)cc2)cn1 |
